Tested on: IL-13 induced pSTAT6 in BEAS-2B human cell line
Test: Inhibition of IL-13 induced pSTAT6 in BEAS
Type: cell-based
Details: IL-13 induced pSTAT6, BEAS-2B cells, ELISA
Method in brief: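 BEAS-2B cells, cultured 48 h, were pretreated with compounds 30 min, then stimulated with IL-13 for 30 min. Phospho-STAT6 (Tyr641) in lysates quantified by sandwich ELISA; 11-point 5-fold series from 10 μM […], duplicate, IC50 fitted with QC (Z′≥0.35, Hill slope 0.5-5, S:B>2).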

Structure (SMILES) | IC50 [nM]
COc1cc2c(cc1-n1nc(C(=O)NCCN3CC[C@@H](C(N)=O)C3)c3cnc(-c4cnn5cccnc45)cc31)OCCN2 [Example 80, (R)-N-(2-(3-carbamoylpyrrolidin-1-yl)ethyl)-1-(6-methoxy-3,4-dihydro-2H-benzo[b][1,4]oxazin-7-yl)-6-(pyrazolo[1,5-a]pyrimidin-3-yl)-1H-pyrazolo[4,3-c]pyridine-3-carboxamide] | 50.1 to 501
COc1cc2c(cc1-n1nc(C(=O)NCCN3CC4(COC(=O)C4)C3)c3cnc(-c4cnn5cccnc45)cc31)OCCN2 [Example 81, 1-(6-methoxy-3,4-dihydro-2H-benzo[b][1,4]oxazin-7-yl)-N-(2-(7-oxo-6-oxa-2-azaspiro[3.4]octan-2-yl)ethyl)-6-(pyrazolo[1,5-a]pyrimidin-3-yl)-1H-pyrazolo[4,3-c]pyridine-3-carboxamide] | 5.01 to 50.1
COc1cc2c(cc1-n1nc(C(=O)NCCN3CCC4(COC4)C3)c3cnc(-c4cnn5cccnc45)cc31)OCCN2 [Example 82, N-(2-(2-oxa-6-azaspiro[3.4]octan-6-yl)ethyl)-1-(6-methoxy-3,4-dihydro-2H-benzo[b][1,4]oxazin-7-yl)-6-(pyrazolo[1,5-a]pyrimidin-3-yl)-1H-pyrazolo[4,3-c]pyridine-3-carboxamide] | 5.01 to 50.1
COc1cc2c(cc1-n1nc(C(=O)NCCN3CC(=O)OC(C)C3)c3cnc(-c4cnn5cccnc45)cc31)OCCN2 (stereo not shown) [Example 83, 1-(6-methoxy-3,4-dihydro-2H-benzo[b][1,4]oxazin-7-yl)-N-(2-(2-methyl-6-oxomorpholino)ethyl)-6-(pyrazolo[1,5-a]pyrimidin-3-yl)-1H-pyrazolo[4,3-c]pyridine-3-carboxamide] | 50.1 to 501
COc1cc2c(cc1-n1nc(NC(=O)C3CCN(C)CC3)c3cnc(-c4cnn5cccnc45)cc31)OCCN2 [Example 84, N-(1-(6-methoxy-3,4-dihydro-2H-benzo[b][1,4]oxazin-7-yl)-6-(pyrazolo[1,5-a]pyrimidin-3-yl)-1H-pyrazolo[4,3-c]pyridin-3-yl)-1-methylpiperidine-4-carboxamide] | 5.01 to 50.1
COc1cc2c(cc1-n1nc(C(=O)NCCN3CCC(C4(O)COC4)CC3)c3cnc(-c4cnn5cccnc45)cc31)OCCN2 [Example 85, N-(2-(4-(3-hydroxyoxetan-3-yl)piperidin-1-yl)ethyl)-1-(6-methoxy-3,4-dihydro-2H-benzo[b][1,4]oxazin-7-yl)-6-(pyrazolo[1,5-a]pyrimidin-3-yl)-1H-pyrazolo[4,3-c]pyridine-3-carboxamide] | 5.01 to 50.1
COc1cc2c(cc1-n1nc(NC(=O)OCCSC3CCOC3=O)c3cnc(-c4cnn5cccnc45)cc31)CCCN2 (stereo not shown) [Example 86, 2-((2-oxotetrahydrofuran-3-yl)thio)ethyl (1-(7-methoxy-1,2,3,4-tetrahydroquinolin-6-yl)-6-(pyrazolo[1,5-a]pyrimidin-3-yl)-1H-pyrazolo[4,3-c]pyridin-3-yl)carbamate] | 5.01 to 50.1
